Assay results published in PMC4450297, “Screening Active Compounds from Garcinia Species Native to China Reveals Novel Compounds Targeting the STAT/JAK Signaling Pathway” (BioMed Research International, 2015).

What was measured:
Assay in all cases: Cell panel screen (CellTiter-Glo)
Type in all cases: cell-based, human
ChaGo-K-1 = ChaGo-K-1 (Lung), 20 micromolar, 72 hrs
Summary of the method: (§1)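 Percent growth inhibition at one concentration (20 μM final) after 72 h treatment, derived from cellular ATP luminescence and normalised between DMSO-treated cells and wells lacking cells.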

NCI-H1770 = NCI-H1770 (Lung), 20 micromolar, 72 hrs
Summary of the method: as §1

T47D = T47D (Breast), 20 micromolar, 72 hrs
Summary of the method: as §1

HCC1395 = HCC1395 (Breast), 20 micromolar, 72 hrs
Summary of the method: as §1

HPAF-II = HPAF-II (Pancreas), 20 micromolar, 72 hrs
Summary of the method: as §1

HCC1569 = HCC1569 (Breast), 20 micromolar, 72 hrs
Summary of the method: as §1

HCC1937 = HCC1937 (Breast), 20 micromolar, 72 hrs
Summary of the method: as §1

CW-2 = CW-2 (Colon), 20 micromolar, 72 hrs
Summary of the method: as §1

NCI-H2347 = NCI-H2347 (Lung), 20 micromolar, 72 hrs
Summary of the method: as §1

C3A = C3A (Liver), 20 micromolar, 72 hrs
Summary of the method: as §1

HT-1197 = HT-1197 (Urinary bladder), 20 micromolar, 72 hrs
Summary of the method: as §1

MSTO-211-H = MSTO-211-H (Lung), 20 micromolar, 72 hrs
Summary of the method: as §1

C8166 = C8166 (Leukemia), 20 micromolar, 72 hrs
Summary of the method: as §1

BT-549 = BT-549 (Breast), 20 micromolar, 72 hrs
Summary of the method: as §1

Colo 205 = conditions: Colo 205, 20 micromolar, 72 hrs
Summary of the method: as §1

TCCSUP = TCCSUP (Urinary bladder), 20 micromolar, 72 hrs
Summary of the method: as §1

SW13 = SW13 (Adrenal gland), 20 micromolar, 72 hrs
Summary of the method: as §1

NCI-H28 = NCI-H28 (Lung), 20 micromolar, 72 hrs
Summary of the method: as §1

HEC-1-A = HEC-1-A (Uterus), 20 micromolar, 72 hrs
Summary of the method: as §1

NCI-H1694 = NCI-H1694 (Lung), 20 micromolar, 72 hrs
Summary of the method: as §1

NCI-H524 = NCI-H524 (Lung), 20 micromolar, 72 hrs
Summary of the method: as §1

A498 = A498 (listed under Lung), 20 micromolar, 72 hrs
Summary of the method: as §1

NCI-H1623 = NCI-H1623 (Lung), 20 micromolar, 72 hrs
Summary of the method: as §1

NCI-H2405 = NCI-H2405 (Lung), 20 micromolar, 72 hrs
Summary of the method: as §1

M059J = M059J (Brain), 20 micromolar, 72 hrs
Summary of the method: as §1

RL95 = RL95 (Uterus), 20 micromolar, 72 hrs
Summary of the method: as §1

A704 = A704 (Kidney), 20 micromolar, 72 hrs
Summary of the method: as §1

J82 = J82 (Urinary bladder), 20 micromolar, 72 hrs
Summary of the method: as §1

HGC-27 = HGC-27 (Stomach), 20 micromolar, 72 hrs
Summary of the method: as §1

Panc 03.27 = Panc 03.27 (Pancreas), 20 micromolar, 72 hrs
Summary of the method: as §1

T98G = T98G (Brain), 20 micromolar, 72 hrs
Summary of the method: as §1

BT-474 = BT-474 (Breast), 20 micromolar, 72 hrs
Summary of the method: as §1

HCC1599 = HCC1599 (Breast), 20 micromolar, 72 hrs
Summary of the method: as §1

CCF-STTG1 = CCF-STTG1 (Brain), 20 micromolar, 72 hrs
Summary of the method: as §1

Bel-7402 = Bel-7402 (Liver), 20 micromolar, 72 hrs
Summary of the method: as §1

ZR-75-30 = ZR-75-30 (Breast), 20 micromolar, 72 hrs
Summary of the method: as §1

Structure (SMILES) | Percent Inhibition (ChaGo-K-1) [%] | Percent Inhibition (NCI-H1770) [%] | Percent Inhibition (T47D) [%] | Percent Inhibition (HCC1395) [%] | Percent Inhibition (HPAF-II) [%] | Percent Inhibition (HCC1569) [%] | Percent Inhibition (HCC1937) [%] | Percent Inhibition (CW-2) [%] | Percent Inhibition (NCI-H2347) [%] | Percent Inhibition (C3A) [%] | Percent Inhibition (HT-1197) [%] | Percent Inhibition (MSTO-211-H) [%] | Percent Inhibition (C8166) [%] | Percent Inhibition (BT-549) [%] | Percent Inhibition (Colo 205) [%] | Percent Inhibition (TCCSUP) [%] | Percent Inhibition (SW13) [%] | Percent Inhibition (NCI-H28) [%] | Percent Inhibition (HEC-1-A) [%] | Percent Inhibition (NCI-H1694) [%] | also measured
CC1(C)C=Cc2cc3c(=O)c4c(O)cc(O)cc4oc3c(O)c2O1 [Go-11] | 75 | 38 | 35 | 68 | 18 | 41 | 21 | 61 | 10 | 19 | 39 | 66 | 71 | 46 | 11 | 43 | 24 | 33 | 38 | 73 | Percent Inhibition (NCI-H524): 83%; Percent Inhibition (A498): 37%; Percent Inhibition (NCI-H1623): -10%; Percent Inhibition (NCI-H2405): 3%; Percent Inhibition (M059J): 78%; Percent Inhibition (RL95): 72%; Percent Inhibition (A704): 24%; Percent Inhibition (J82): 52%; Percent Inhibition (HGC-27): 54%; Percent Inhibition (Panc 03.27): 39%; Percent Inhibition (T98G): 68%; Percent Inhibition (BT-474): 31%; Percent Inhibition (HCC1599): 49%; Percent Inhibition (CCF-STTG1): 44%; Percent Inhibition (Bel-7402): 16%; Percent Inhibition (ZR-75-30): 62%
CC(C)=CCCC1(C)C=Cc2c(O)c3c(c(CC=C(C)C)c2O1)OC12C(=CC4CC1C(C)(C)OC2(CC=C(C)C(=O)O)C4=O)C3=O (mixture of isomers) [GB8] | 99 | 100 | 100 | 99 | 99 | 100 | 100 | 99 | 99 | 99 | 99 | 100 | 100 | 100 | 99 | 100 | 99 | 99 | 100 | 100 | Percent Inhibition (NCI-H524): 98%; Percent Inhibition (A498): 99%; Percent Inhibition (NCI-H1623): 99%; Percent Inhibition (NCI-H2405): 99%; Percent Inhibition (M059J): 100%; Percent Inhibition (RL95): 100%; Percent Inhibition (A704): 99%; Percent Inhibition (J82): 99%; Percent Inhibition (HGC-27): 100%; Percent Inhibition (Panc 03.27): 99%; Percent Inhibition (T98G): 100%; Percent Inhibition (BT-474): 99%; Percent Inhibition (HCC1599): 100%; Percent Inhibition (CCF-STTG1): 99%; Percent Inhibition (Bel-7402): 99%; Percent Inhibition (ZR-75-30): 99%
CC1(C)C=Cc2c(cc(O)c3c(=O)c4cc5c(c(O)c4oc23)OC(C)(C)C=C5)O1 [Go-16] | 9 | 25 | 20 | 68 | 15 | 11 | 25 | 17 | -8 | 22 | 35 | 34 | 13 | -5 | 4 | 44 | 6 | 9 | 11 | 5 | Percent Inhibition (NCI-H524): -35%; Percent Inhibition (A498): 12%; Percent Inhibition (NCI-H1623): 33%; Percent Inhibition (NCI-H2405): 27%; Percent Inhibition (M059J): 31%; Percent Inhibition (RL95): -8%; Percent Inhibition (A704): 17%; Percent Inhibition (J82): 23%; Percent Inhibition (HGC-27): 28%; Percent Inhibition (Panc 03.27): 20%; Percent Inhibition (T98G): 29%; Percent Inhibition (BT-474): -6%; Percent Inhibition (HCC1599): 41%; Percent Inhibition (CCF-STTG1): 22%; Percent Inhibition (Bel-7402): 15%; Percent Inhibition (ZR-75-30): 47%
